According to paper PMC12586182 (Frontiers in Oncology, 2025):

Legend:
Assay in all cases: Kinase panel profiling at 1 µmol/L (mobility shift assay, Carna)
Assay type in all cases: biochemical
Conditions in all cases: 1 µmol/L of BTK inhibitor
[1] = molecular target: T1, KIT (Homo sapiens, UniProt P10721)
T1 construct: purchased Carna Biosciences

[2] = molecular target: T2, FAK (Homo sapiens, UniProt Q05397)
T2 construct: purchased Carna Biosciences

[3] = molecular target: T3, PDHK2 (Homo sapiens, UniProt Q15119)
T3 construct: purchased Carna Biosciences

[4] = molecular target: T4, MST1 (Homo sapiens, UniProt Q13043)
T4 construct: purchased Carna Biosciences
T4 sequence (Q13043 1-487): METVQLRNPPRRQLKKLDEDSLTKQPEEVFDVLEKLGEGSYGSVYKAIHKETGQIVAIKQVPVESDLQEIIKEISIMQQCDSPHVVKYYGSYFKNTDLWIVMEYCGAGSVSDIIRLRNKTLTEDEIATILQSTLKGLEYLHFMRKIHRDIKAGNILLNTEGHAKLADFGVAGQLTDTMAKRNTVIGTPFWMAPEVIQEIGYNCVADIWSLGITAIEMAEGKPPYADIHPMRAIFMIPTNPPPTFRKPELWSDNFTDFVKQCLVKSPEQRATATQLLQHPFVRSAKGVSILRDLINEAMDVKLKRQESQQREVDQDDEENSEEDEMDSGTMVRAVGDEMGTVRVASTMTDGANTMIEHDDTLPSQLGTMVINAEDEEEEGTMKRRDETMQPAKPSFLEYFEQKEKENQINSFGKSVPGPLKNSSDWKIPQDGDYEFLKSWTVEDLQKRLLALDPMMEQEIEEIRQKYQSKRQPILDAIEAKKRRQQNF

[5] = molecular target: T5, BUB1/BUB3 (Homo sapiens, UniProt O43683)
T5 construct: purchased Carna Biosciences

[6] = molecular target: T6, PKD3 (Homo sapiens, UniProt O94806)
T6 construct: purchased Carna Biosciences
T6 sequence (O94806 1-890): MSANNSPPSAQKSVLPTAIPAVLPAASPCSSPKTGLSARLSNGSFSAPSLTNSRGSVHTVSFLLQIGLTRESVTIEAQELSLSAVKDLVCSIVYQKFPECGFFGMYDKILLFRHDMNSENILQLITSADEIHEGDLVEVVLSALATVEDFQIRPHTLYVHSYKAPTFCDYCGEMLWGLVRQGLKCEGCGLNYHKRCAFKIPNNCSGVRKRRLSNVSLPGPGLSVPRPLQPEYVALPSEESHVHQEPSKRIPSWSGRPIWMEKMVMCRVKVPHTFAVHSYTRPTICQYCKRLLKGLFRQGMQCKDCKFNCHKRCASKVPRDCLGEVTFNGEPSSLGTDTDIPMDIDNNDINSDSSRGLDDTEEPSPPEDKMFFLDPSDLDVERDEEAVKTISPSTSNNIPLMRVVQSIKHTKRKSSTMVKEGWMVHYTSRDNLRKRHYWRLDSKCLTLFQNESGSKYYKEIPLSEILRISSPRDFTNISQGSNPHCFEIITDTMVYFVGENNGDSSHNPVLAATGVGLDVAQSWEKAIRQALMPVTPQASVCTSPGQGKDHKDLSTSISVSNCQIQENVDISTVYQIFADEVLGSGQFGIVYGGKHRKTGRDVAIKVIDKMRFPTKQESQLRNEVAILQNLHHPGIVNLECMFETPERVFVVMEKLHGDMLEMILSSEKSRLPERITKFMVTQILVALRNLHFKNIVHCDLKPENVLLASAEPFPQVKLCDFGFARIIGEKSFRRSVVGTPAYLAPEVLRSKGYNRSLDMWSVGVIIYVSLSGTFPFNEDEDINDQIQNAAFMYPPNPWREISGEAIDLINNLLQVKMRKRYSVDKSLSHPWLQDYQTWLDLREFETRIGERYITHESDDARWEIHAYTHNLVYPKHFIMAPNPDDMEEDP

[7] = molecular target: T7, TBK1 (Homo sapiens, UniProt Q9UHD2)
T7 construct: purchased Carna Biosciences
T7 sequence (Q9UHD2 1-729): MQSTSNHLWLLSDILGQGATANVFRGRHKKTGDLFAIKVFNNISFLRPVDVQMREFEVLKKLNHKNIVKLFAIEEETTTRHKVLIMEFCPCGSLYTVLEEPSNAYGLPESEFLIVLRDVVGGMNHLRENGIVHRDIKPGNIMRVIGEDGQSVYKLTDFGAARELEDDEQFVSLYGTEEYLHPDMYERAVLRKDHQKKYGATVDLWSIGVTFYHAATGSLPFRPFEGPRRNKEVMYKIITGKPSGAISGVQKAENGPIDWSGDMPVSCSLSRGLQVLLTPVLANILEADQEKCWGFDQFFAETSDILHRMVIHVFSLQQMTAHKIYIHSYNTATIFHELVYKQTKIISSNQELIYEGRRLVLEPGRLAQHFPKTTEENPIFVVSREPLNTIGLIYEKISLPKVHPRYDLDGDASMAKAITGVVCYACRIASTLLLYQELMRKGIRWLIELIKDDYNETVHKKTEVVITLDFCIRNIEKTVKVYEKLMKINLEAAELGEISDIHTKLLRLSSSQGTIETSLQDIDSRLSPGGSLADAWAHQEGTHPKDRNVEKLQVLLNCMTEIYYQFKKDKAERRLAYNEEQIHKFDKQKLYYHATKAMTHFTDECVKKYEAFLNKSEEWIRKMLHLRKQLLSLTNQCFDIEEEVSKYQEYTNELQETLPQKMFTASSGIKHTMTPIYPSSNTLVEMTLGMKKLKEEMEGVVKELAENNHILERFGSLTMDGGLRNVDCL

T2 sequence (Q05397 whole entry): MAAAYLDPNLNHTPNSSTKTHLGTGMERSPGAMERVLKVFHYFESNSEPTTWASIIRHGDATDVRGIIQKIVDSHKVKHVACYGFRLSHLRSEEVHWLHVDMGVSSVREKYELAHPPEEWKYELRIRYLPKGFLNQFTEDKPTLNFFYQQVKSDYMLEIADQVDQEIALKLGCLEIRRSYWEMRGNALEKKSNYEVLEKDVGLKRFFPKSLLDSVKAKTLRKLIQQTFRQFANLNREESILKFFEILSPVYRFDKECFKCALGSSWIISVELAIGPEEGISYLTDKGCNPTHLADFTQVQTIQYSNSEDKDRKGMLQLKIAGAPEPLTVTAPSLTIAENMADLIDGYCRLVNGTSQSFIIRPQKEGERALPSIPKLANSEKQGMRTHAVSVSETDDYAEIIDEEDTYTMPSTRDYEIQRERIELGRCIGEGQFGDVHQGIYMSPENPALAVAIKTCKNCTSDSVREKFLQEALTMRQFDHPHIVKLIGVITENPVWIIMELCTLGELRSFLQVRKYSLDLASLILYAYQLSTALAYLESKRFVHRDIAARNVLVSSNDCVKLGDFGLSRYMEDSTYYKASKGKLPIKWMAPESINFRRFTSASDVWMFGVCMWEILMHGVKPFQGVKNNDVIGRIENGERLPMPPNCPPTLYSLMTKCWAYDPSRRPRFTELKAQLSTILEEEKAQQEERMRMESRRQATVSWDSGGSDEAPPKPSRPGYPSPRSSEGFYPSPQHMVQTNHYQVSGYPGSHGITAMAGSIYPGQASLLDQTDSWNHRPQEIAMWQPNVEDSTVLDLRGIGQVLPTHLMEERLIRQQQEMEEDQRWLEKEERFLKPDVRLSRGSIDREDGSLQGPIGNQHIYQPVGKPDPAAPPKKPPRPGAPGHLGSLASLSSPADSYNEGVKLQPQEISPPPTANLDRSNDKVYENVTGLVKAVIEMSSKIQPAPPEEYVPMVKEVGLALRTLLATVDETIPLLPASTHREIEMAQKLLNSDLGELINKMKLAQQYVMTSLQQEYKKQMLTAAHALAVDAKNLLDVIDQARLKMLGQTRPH
T5 sequence (O43683 whole entry): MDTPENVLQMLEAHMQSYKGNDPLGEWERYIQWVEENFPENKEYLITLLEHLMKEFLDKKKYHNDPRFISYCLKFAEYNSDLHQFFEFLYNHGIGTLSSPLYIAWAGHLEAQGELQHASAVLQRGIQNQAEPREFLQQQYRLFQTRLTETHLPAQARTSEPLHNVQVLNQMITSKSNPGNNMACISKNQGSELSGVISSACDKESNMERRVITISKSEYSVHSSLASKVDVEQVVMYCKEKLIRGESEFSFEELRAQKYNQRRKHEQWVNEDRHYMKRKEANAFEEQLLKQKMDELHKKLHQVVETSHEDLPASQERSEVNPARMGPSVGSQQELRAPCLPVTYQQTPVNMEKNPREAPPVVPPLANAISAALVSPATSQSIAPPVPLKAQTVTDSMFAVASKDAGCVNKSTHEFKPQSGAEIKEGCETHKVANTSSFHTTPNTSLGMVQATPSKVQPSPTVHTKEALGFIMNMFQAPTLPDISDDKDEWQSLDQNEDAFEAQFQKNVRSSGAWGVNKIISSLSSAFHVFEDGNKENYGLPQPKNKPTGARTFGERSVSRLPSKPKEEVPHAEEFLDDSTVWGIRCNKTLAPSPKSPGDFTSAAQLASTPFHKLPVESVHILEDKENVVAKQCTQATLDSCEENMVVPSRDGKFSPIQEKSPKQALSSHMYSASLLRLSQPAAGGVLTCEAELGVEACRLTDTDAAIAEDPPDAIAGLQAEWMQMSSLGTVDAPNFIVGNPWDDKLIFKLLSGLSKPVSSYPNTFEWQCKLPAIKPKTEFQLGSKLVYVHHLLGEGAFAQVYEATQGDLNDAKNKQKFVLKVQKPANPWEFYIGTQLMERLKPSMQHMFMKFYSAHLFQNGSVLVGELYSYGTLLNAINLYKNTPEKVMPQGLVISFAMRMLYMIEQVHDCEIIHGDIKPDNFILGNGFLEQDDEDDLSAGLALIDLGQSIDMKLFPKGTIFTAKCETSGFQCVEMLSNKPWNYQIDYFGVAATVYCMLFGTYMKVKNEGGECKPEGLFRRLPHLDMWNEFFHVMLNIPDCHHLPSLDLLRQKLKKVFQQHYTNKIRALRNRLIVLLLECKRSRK
T5 sequence (O43684 whole entry partner): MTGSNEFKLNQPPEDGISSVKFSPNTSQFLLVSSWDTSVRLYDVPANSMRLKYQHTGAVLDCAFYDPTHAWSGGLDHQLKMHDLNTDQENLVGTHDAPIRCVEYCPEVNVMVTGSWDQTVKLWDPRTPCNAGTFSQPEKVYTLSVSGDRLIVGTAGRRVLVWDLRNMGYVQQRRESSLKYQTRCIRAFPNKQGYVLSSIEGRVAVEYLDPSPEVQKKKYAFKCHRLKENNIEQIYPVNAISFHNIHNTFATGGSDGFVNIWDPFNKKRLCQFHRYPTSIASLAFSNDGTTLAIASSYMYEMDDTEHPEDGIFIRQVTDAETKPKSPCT
T1 sequence (P10721 26-976): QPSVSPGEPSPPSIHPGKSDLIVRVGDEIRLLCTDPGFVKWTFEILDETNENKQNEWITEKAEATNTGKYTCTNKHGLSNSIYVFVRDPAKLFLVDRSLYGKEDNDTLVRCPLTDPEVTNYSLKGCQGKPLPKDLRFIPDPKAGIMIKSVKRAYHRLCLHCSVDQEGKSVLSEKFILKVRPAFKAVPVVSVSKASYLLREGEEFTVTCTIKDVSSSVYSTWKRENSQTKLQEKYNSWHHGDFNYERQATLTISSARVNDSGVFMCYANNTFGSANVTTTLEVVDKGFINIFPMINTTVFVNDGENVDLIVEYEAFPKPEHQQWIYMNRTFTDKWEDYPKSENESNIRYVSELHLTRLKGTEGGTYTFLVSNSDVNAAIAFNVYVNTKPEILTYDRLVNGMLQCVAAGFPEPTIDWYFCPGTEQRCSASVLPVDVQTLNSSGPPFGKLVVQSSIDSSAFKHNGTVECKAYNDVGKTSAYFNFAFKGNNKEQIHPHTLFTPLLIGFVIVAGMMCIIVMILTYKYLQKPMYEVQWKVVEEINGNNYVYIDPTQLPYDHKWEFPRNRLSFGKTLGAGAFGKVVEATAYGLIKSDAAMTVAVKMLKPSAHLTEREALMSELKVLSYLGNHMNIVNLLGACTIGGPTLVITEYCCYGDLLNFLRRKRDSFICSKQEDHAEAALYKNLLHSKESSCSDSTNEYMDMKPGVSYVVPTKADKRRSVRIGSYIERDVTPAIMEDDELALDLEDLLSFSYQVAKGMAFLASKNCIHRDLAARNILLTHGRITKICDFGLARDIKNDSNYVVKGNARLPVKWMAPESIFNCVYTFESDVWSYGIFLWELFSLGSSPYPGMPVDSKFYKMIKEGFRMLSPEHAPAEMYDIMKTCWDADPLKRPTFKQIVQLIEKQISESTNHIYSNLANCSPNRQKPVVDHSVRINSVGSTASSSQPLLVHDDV

| Compound | Percentage inhibition of kinase enzyme activity [1] | Percentage inhibition of kinase enzyme activity [2] | Percentage inhibition of kinase enzyme activity [3] | Percentage inhibition of kinase enzyme activity [4] | Percentage inhibition of kinase enzyme activity [5] | Percentage inhibition of kinase enzyme activity [6] | Percentage inhibition of kinase enzyme activity [7] |
| --- | --- | --- | --- | --- | --- | --- | --- |
| CC#CC(=O)N1CCC[C@H]1c1nc(-c2ccc(C(=O)Nc3ccccn3)cc2)c2c(N)nccn12 [acalabrutinib] | 2.89% | -1.39% | 0.16% | 3.91% | 5.51% | -2.07% | 2.14% |
| C=CC(=O)N1CCC[C@@H](n2nc(-c3ccc(Oc4ccccc4)cc3)c3c(N)ncnc32)C1 [ibrutinib] | -4.53% | 5.04% | -1.08% | 4.14% | 5.19% | 5.48% | 0.83% |
| O=C(c1ccc(Oc2ccccc2)cc1Cl)c1c[nH]c2ncnc(N[C@@H]3CC[C@@H](CO)OC3)c12 [nemtabrutinib] | 78.81% | 100.03% | 4.18% | 96.55% | -0.62% | 16.29% | 1.71% |
| COc1ccc(F)cc1C(=O)NCc1ccc(-c2nn([C@@H](C)C(F)(F)F)c(N)c2C(N)=O)cc1 [pirtobrutinib] | -5.95% | 0.91% | 0.06% | 10.97% | 3.40% | 2.18% | 2.58% |
| C=CC(=O)N1CCC([C@@H]2CCNc3c(C(N)=O)c(-c4ccc(Oc5ccccc5)cc4)nn32)CC1 [zanubrutinib] | -2.78% | 0.0146% | – | – | – | – | – |
